The source of these data is patent US20080139611A1, “METHODS OF USING 4-PHENYLAMINOQUINOLINES AS TOPICAL NON-STEROIDAL ANTIINFLAMMATORY COMPOUNDS” (priority 2006, published 2008).

One data set deals with PMA-induced ear swelling. The experiment in a line: PMA-induced mouse ear swelling (topical anti-inflammatory activity). The format is in vivo, CD-1 (Crl.) derived male mice. Particulars: topical 3 mg/ear applied 30 min before and 15 min after PMA, measured 6 hours after PMA, >=30% considered significant. Here is the method: A compound can be tested for topical anti-inflammatory activity by measuring the degree of inhibition of edema produced in a mouse ear that has been irritated by the application of a solution of a phorbol ester. [2-(7-Trifluoromethyl-quinolin-4-ylamino)-phenyl]-acetic acid sodium salt was tested for its anti-inflammatory activity as follows: Groups of 6 CD-1 (Crl.) derived male mice weighing 24±2 g were used. Phorbol 12-Myristate 13-Acetate (PMA 4 μg in 20 μl of Acetone) was applied topically to the anterior and posterior surfaces of the right ear to each animal. Vehicle (Ethanol:Acetone/1:1, 20 μl/ear) and [2-(7-Trifluoromethyl-quinolin-4-ylamino)-phenyl]-acetic acid sodium salt at 3 mg/ear were each applied 30 minutes before and 15 minutes after Phorbol 12-Myristate 13-Acetate challenge. Indomethacin (3 mg in 20 μl/ear of acetone:ethanol/1:1) as the positive control was similarly applied at the same timing. Ear swelling was then measured by a Dyer model micrometer gauge at 6 hours after Phorbol 12 Myristate 13-Acetate application as an index of inflammation. Percent inhibition was calculated according to the formula: ([Ic−It]/Ic)×100%, where Ic and It refer to increase of ear thickness (mm) in control and treated mice, respectively. Inhibition of 30 percent or more (≧30%) in ear swelling is considered significant anti-inflammatory activity.
[2-(7-Trifluoromethyl-quinolin-4-ylamino)-phenyl]-acetic acid sodium salt caused significant inhibition (80%) of the PMA-induced ear swelling vs vehicle control. […] When [2-(7-Trifluoromethyl-quinolin-4-ylamino)-phenyl]-acetic acid methyl ester was tested in this assay, the inhibition of ear swelling was not significant (20% inhibition).

A further data set concerns the target T1, COX-1 enzyme (Homo sapiens, UniProt P23219).
T1 construct: Human platelets are used; endogenous in cells; host or cells: human platelets
The experiment in a line: COX-1 inhibition in human platelets (PGE2 formation, EIA). Type of data set: cell-based. The method, then:
Compounds can be tested for their ability to inhibit the COX-1 enzyme by the following procedure: Human platelets are used. Test compound and/or vehicle is incubated with cells (5×10^7/ml) in modified HEPES buffer pH 7.4 for 15 minutes at 37° C. The reaction is initiated by addition of 100 μM arachidonic acid for another 15 minute incubation period and terminated by further addition of 1 N HCl. An aliquot is removed and the amount of PGE 2 formed is determined spectrophotometrically by enzyme immunoassay (“EIA”) kit.
[2-(7-Trifluoromethyl-quinolin-4-ylamino)-phenyl]-acetic acid hydrochloride was screened at 6 concentrations to test for inhibition of the enzyme: 0.1 μM, 0.3 μM, 1 μM, 3 μM, 10 μM and 30 μM. [2-(7-Trifluoromethyl-quinolin-4-ylamino)-phenyl]-acetic acid hydrochloride inhibited the COX-1 enzyme with an IC50 of <0.1 μM in this assay.

Data set [1] addresses T2, Human recombinant Cyclooxygenase-2 (Homo sapiens, UniProt P35354).
T2 construct: purchased Sigma C-0858; host or cells: Sf21 cells
T2 sequence (P35354 18-604): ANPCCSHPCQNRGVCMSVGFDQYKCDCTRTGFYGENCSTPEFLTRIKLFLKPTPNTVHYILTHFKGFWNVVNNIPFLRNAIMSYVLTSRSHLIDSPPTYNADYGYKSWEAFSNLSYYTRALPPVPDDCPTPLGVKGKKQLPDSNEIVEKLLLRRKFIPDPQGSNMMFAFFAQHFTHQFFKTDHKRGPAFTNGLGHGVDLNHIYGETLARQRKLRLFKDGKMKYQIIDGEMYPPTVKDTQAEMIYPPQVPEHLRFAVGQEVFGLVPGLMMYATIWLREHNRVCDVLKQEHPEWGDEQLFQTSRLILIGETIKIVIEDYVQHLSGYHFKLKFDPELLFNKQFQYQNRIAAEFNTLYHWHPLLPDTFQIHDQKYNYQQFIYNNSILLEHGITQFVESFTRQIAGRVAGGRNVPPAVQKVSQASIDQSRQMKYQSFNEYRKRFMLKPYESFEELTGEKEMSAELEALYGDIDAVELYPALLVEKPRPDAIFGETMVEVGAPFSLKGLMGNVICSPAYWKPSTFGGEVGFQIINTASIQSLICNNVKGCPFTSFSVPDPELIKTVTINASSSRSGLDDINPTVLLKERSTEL
The experiment in a line: COX-2 inhibition, human recombinant enzyme (PGE2 formation, EIA). The note with it: human recombinant COX-2 expressed in Sf21 cells; 7 concentrations 0.01-10 μM; 0.3 μM arachidonic acid. The format is biochemical. Here is the method:
Compounds can be tested for their ability to inhibit the COX-2 enzyme by the following procedure: Human recombinant Cyclooxygenase-2 expressed in Sf21 cells (Sigma, C-0858) is used. Test compound and/or vehicle is preincubated with 0.11 U cyclooxygenase-2, 1 mM reduced GSH, 500 μM phenol and 1 μM hematin for 15 minutes at 37° C. in Tris-HCl buffer pH 7.7. The reaction is initiated by addition of 0.3 μM arachidonic acid and terminated after 5 minutes by further addition of 1 N HCl. Following centrifugation, substrate conversion to PGE 2 is measured by an Amersham EIA kit.
[2-(7-Trifluoromethyl-quinolin-4-ylamino)-phenyl]-acetic acid hydrochloride was screened at 7 concentrations to test for inhibition of the enzyme: 0.01 uM, 0.03 μM, 0.1 μM, 0.3 μM, 1 μM, 3 μM and 10 μM.

T1 sequence (P23219 24-599): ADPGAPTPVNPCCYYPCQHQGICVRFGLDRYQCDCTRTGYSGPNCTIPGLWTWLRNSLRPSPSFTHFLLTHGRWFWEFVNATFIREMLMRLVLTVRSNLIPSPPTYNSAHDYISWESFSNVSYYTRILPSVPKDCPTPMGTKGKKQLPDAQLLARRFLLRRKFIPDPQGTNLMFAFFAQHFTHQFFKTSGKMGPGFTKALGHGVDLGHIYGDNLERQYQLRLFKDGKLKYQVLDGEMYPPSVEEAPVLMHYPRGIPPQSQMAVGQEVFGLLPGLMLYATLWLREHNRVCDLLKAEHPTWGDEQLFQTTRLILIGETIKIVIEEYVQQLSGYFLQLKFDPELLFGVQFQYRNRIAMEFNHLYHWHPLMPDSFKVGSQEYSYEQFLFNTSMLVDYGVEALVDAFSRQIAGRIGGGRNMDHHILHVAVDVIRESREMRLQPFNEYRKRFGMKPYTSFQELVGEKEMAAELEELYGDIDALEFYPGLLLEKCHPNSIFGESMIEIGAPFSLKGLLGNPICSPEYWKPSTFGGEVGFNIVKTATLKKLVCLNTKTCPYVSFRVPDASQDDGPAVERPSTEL

Compound `Cl.O=C(O)Cc1ccccc1Nc1ccnc2cc(Cl)ccc12` showed a melting point of 113 to 116 °C.
`COc1ccc2c(c1)c(CC(=O)O)c(C)n2C(=O)c1ccc(Cl)cc1` [Indomethacin, reference compound]: in the data set with PMA-induced ear swelling, the “inhibition of PMA-induced ear swelling vs vehicle control” value (from here on “inhibition … vs vehicle control”) is reported as 77%.
On the same count and under the same terms, under `O=C([O-])Cc1ccccc1Nc1ccnc2cc(C(F)(F)F)ccc12.[Na+]` [[2-(7-Trifluoromethyl-quinolin-4-ylamino)-phenyl]-acetic acid sodium salt] stands 80%.
As for `Cl.O=C(O)Cc1ccccc1Nc1ccnc2cc(C(F)(F)F)ccc12` [[2-(7-Trifluoromethyl-quinolin-4-ylamino)-phenyl]-acetic acid hydrochloride], the melting point was 103 to 104 °C. For the same compound, in the data set on PMA-induced ear swelling, the “inhibition … vs vehicle control” value turned out to be 75%. On COX-1 enzyme (screened at 6 concentrations 0.1-30 μM, 100 μM arachidonic acid), this compound gave an IC50 of less than 100 nM. The compound also returned an IC50 against COX-1 enzyme (tested separately at 3 concentrations (0.01, 0.03 and 0.1 μM)) of 81 nM. Besides, the IC50 in data set [1] came to 61 nM.
As for `COC(=O)Cc1ccccc1Nc1ccnc2cc(C(F)(F)F)ccc12` [[2-(7-Trifluoromethyl-quinolin-4-ylamino)-phenyl]-acetic acid methyl ester], in the data set with PMA-induced ear swelling, the “inhibition … vs vehicle control” value stood at 20%.

Broadly, the melting point is the temperature of the solid-liquid transition. As a reminder, the IC50 is the concentration that inhibits the measured activity by half.
